These are literature values, as cited in EP0547334A1, “Combination of calcium antagonists with cholinesterase inhibitors for the treatment of senile demention” (priority 1991, dated 1993).

This data set concerns Ratten. Particulars: Metrifonat 1 mg/kg alone, oral, rats; literature statement (Schmidt, de Jonge 1991).

For the molecule `COP(=O)(OC)C(O)C(Cl)(Cl)Cl` (stereo not shown) [Metrifonat], the Wirkung result was “keine Wirkung”.
